From patent US20050058745A1, “Use of Labiatae herb preparations for extending the flavor shelf life of malt beverages” (priority 2003, published 2005)
Entries after “also recorded” stand apart in the source; their conditions may differ.

Key:
[1] = Trained panel flavor evaluation, highly hopped aromatic beer, forced aging; conditions: 20 ppm
Experimental: Separate solutions containing 2% pure rosmarinic acid or pure carnosic acid were prepared by weighing out 500 mg of each compound into separate volumetric flasks and diluting to 25 mL with 100% EtOH. The beer used in this study was the freshest material available, being coded Nov 03 […]. It was purchased at a local market. Bottle additions were done as in Example 1. The following samples were prepared: The bottles were placed in a heated room at 40±1° C. in the dark for varying amounts of time. After the allotted aging time, the bottles of beer were transferred to a dark refrigerator and stored at approximately 2to 4° C. until they were analyzed (always within 48 hours). Additional bottles from the same code were kept unopened in 2° to 4° C. storage. These unopened samples from the same beer code were labeled “Fresh Control” used to provide fresh samples for the trained panel. At the appropriate times, a trained 8-member panel evaluated the beers. […] Three beers were evaluated at each session-Fresh Control, Aged No Addition, and Aged Beer with one of the Labiatae treatments. The overall preference rank, the character and intensity of the aroma, the levels of paper/cardboard aroma and flavor, sour or off flavors, hang and astringency and bitterness quality and intensity were evaluated.

[2] = Trained panel flavor evaluation, commercial Pilsener, forced aging
Experimental: Separate solutions containing 2% pure rosmarinic acid or pure carnosic acid were prepared by weighing out 500 mg of each compound into separate volumetric flasks and diluting to 25 mL with 100% EtOH.
The beer used in this study was purchased at a local market with a production date of 36 days prior to use. Bottle additions were done as follows: • 1. A bottle of the beer was opened, struck sharply on the top to induce foaming (called “fobbing”), and crowned. The fobbing excludes air. The bottle was swirled and inverted. This sample was designated “No Additions.” • 2. Bottles of beer were opened and an aliquot of either the rosmarinic acid or carnosic acid solutions or a combination of each was added in an amount to give the correct addition rate. The bottle was then fobbed, as above and crowned. It was then swirled and inverted. The samples were designated appropriately to reflect the additive and concentration.
The bottles were placed in a heated room at 40±1° C. in the dark for varying amounts of time. After the allotted aging time, the bottles of beer were transferred to a dark refrigerator and stored at approximately 2° to 4° C. until they were analyzed. Additional bottles from the same code were kept unopened in 2° to 4° C. storage. These unopened samples from the same beer code were labeled “Fresh Control” used to provide fresh samples for the trained panel.
At the appropriate times, a trained 7- or 8-member panel evaluated the beers. In the first study panels, the fresh sample was not identified. Members rated beers for nine attributes that are characteristic for beer: Malt, Yeast, Estery, Hops, Sweet, Stale/Oxidized, Sour/Acid, Solvent (Chemical), and Bitterness. The panel never evaluated more than four beers at a session. The ratings are shown below.

[3] = Trained panel flavor evaluation, light beer, forced aging; conditions: 5 ppm, 6 days 32° C.; for preservation of fresh flavor (words): light beer
Experimental: Separate solution of pure rosmarinic acid, pure carnosol and pure carnosic acid were prepared in ethanol as previously.
The light beer used in this study was approximately one month old and was purchased at a local market. Bottle additions were done as in Example 1.
The bottles were placed in a heated room at 32±1° C. in the dark. After the allotted aging time, the bottles of beer were transferred to a dark refrigerator and stored at approximately 2° to 4° C. until they were analyzed. Additional bottles from the same code were kept unopened in 2° to 4° C. storage. These unopened samples from the same beer code were labeled “Fresh Control” used to provide fresh samples for the trained panel.
At the appropriate times, a trained 7-member panel evaluated the beers. […] Five beers were evaluated at the session—Fresh Control, Aged No Addition, and Aged containing each one of the Labiatae treatments. The overall preference rank, the character and intensity of the aroma, the levels of paper/cardboard aroma and flavor, sour or off flavors, hang and astringency and bitterness quality and intensity were evaluated.

[4] = 3-Methylbutanal in headspace of aged beer; format: physicochemical; conditions: 20 ppm (RA + CA: 10 ppm each)
Experimental: The highly hopped beer from example 2 was treated with solutions of carnosic acid in ethanol, rosmarinic acid in ethanol or a mixture of carnosic acid and rosmarinic acid in ethanol as done previously. […] The bottles were fobbed to exclude air and crowned. • 3. “20 ppm CA+air” in which bottles were opened and 20 ppm CA added as above. These bottles received two puffs of air in the remaining headspace from a 25 mL bulb. They were crowned without fobbing • 4. “20 ppm RA” in which bottles were opened and 20 ppm rosmarinic acid added from a 2% solution. The bottles were fobbed and crowned. • 5. “20 ppm RA+air” which was done as in No. 4, with 20 ppm RA added. These bottles received the two puffs of air and were crowned without fobbing. • 6. “10 ppm RA+10 ppm CA” in which bottles were opened and 10 ppm each of carnosic and rosmarinic acids were added from pure solutions (178 μL of 2% solution per 12 oz bottle). Bottles were fobbed and crowned. • 7. “10 ppm RA+10 ppm CA+air” in which 10 ppm each of RA and CA was added. This treatment received two puffs of air and was not fobbed before closing. • 8. “Control+air” in which bottles were opened, given two puffs of air and crowned without fobbing. • 9. “Control” in which bottles were opened, fobbed and crowned. Treatments 2 through 9 were stored in a 40° C. hot room. At various times, bottles were opened and samples analyzed for phenylacetaldehyde and 3-methylbutanal by the method of “[…], et al. The results are shown in Table 19.

[5] = DCIP redox potential of mash (first wort); format: physicochemical; conditions: for Redox: 20 ppm in mash (20 mg/kg of mash), first wort
Experimental: A 300 g sample of 2-row Pale Barley Malt obtained from a local brewery was ground to a “brewery grind” with a hand grinder. Fifty-gram samples of the ground malt were weighed into each of three 600 mL beakers. Tap water was boiled for 5 min to remove the chlorine and sanitize the water. When cooled, the pH of the water was adjusted from 7.86 to 5.5 with 0.1 N H2SO4. The water was then heated to 43° C. (109.4° F.) and 160 g of this adjusted water was added to each beaker. To one of the beakers was added 210 μL of a 2% solution of carnosic acid in ethanol (giving 20 mg CA/kg of mash). To another beaker was added 210 μL of a 2% solution of rosmarinic acid. One beaker received no treatment. The beakers were stirred for 10 min at 43° C. on a temperature probe controlled hot plate, with the probe in one of the beakers. After the 10 min period the beakers were placed on another temperature probe controlled hot plate set at 68° C. (154.4° F.), and the probe put in one of the mash beakers. The come up time was approximately 15 min from 43° C. to 68° C. The beakers were stirred at this temperature for 15 min. After the 15-minute mash, the beakers were removed from the hot plate and cooled in an ice bath. Each beaker's contents were strained through a paper filter. Approximately 75 mL of first wort was collected from each mash. The grain was not sparged. The °Balling of the worts was measured with a temperature-compensated refractometer (Abbe, Leica Mark II).

[6] = Stability of RA in 9.5% tetrahydroisohumulone solution at pH 8; format: physicochemical; conditions: pH 8, room temperature
Experimental: A solution of rosmarinic acid in 9.5% tetrahydroisohumulone at pH 8 was prepared and allowed to stand at room temperature for an extended period of time to determine stability.

Compound | panelists' preference for treated sample over Aged No Addition sample ([1]; 1 week 40° C.) | panelists' preference for treated sample over Aged No Addition sample [3] | preservation of fresh flavor (words) [3] | 3-Methylbutanal in the headspace of aged beer ([4]; Day 0, 40° C., + air) | 3-Methylbutanal in the headspace of aged beer ([4]; Day 0, 40° C., no air) | 3-Methylbutanal in the headspace of aged beer ([4]; Day 3, 40° C., + air) | 3-Methylbutanal in the headspace of aged beer ([4]; Day 3, 40° C., no air) | 3-Methylbutanal in the headspace of aged beer ([4]; Day 7, 40° C., + air) | 3-Methylbutanal in the headspace of aged beer ([4]; Day 7, 40° C., no air) | 3-Methylbutanal in the headspace of aged beer ([4]; Day 14, 40° C., + air) | 3-Methylbutanal in the headspace of aged beer ([4]; Day 14, 40° C., no air) | 3-Methylbutanal in the headspace of aged beer ([4]; Day 21, 40° C., + air) | 3-Methylbutanal in the headspace of aged beer ([4]; Day 21, 40° C., no air) | Redox [5] | further results
CC(C)c1cc2c(c(O)c1O)[C@@]1(C(=O)O)CCCC(C)(C)[C@@H]1CC2 [CA, carnosic acid] | 8 of 8 panelists preferred | 7 of 7 panelists preferred | very significantly retards the rate of staling | 3.44 Parts per million | 3.24 Parts per million | 3.85 Parts per million | 3.13 Parts per million | 3.68 Parts per million | 2.98 Parts per million | 3.45 Parts per million | 1.82 Parts per million | 5.09 Parts per million | 4.66 Parts per million | 17.3 | ranking (normalized sum of preference, 1 most preferred, 4 least preferred) ([2]; 5 ppm CA, 1 week 40° C.): 2.6; ranking (normalized sum of preference, 1 most preferred, 4 least preferred) ([2]; 10 ppm CA, 1 week 40° C.): 2.4; ranking (normalized sum of preference, 1 most preferred, 4 least preferred) ([2]; 20 ppm CA, 1 week 40° C.): 2.3; ranking (normalized sum of preference, 1 most preferred, 4 least preferred) ([2]; 20 ppm CA, 2 weeks 40° C.): 2.1; enhancing effect on redox potential of mash relative to RA ([5]; 20 ppm): less by about half the effect seen with RA
O=C(/C=C/c1ccc(O)c(O)c1)O[C@H](Cc1ccc(O)c(O)c1)C(=O)O [RA, rosmarinic acid] | 7 of 8 panelists preferred | 7 of 7 panelists preferred | very significantly retards the rate of staling | 3.13 Parts per million | 4.12 Parts per million | 4.14 Parts per million | 3.05 Parts per million | 3.95 Parts per million | 2.73 Parts per million | 4.28 Parts per million | 3.03 Parts per million | 5.06 Parts per million | 4.85 Parts per million | 38.8 | panelists' preference for treated sample over Aged No Addition sample ([1]; 3 days 40° C.): 6 of 8 panelists preferred; % Rosmarinic Acid in Solution ([6]; 0 days): 12.07%; % Rosmarinic Acid in Solution ([6]; 3 days): 12.45%; % Rosmarinic Acid in Solution ([6]; 5 days): 12.40%; % Rosmarinic Acid in Solution ([6]; 15 days): 12.12%; % Rosmarinic Acid in Solution ([6]; 38 days): 11.36%; % Rosmarinic Acid in Solution ([6]; 54 days): 11.74%; % Rosmarinic Acid in Solution ([6]; 86 days): 10.88%; stability in hop acid solution [6]: stable in this formulation for at least three months; also recorded: very stable in the hop acid solution
